In patent US20260070945A1, “MACROCYCLIC IMMUNOMODULATORS” (Bristol-Myers Squibb Company, priority 2022, published 2026):
Where a SMILES comes first, the peptide text is derived from it. Bridges are numbered along the chain shown (N, C = ends). [ ]: non-standard residue; d: D form. The star is where a group is joined. ξ: configuration not given here. Phe(4-COOH) = N[C@@H](Cc1ccc(C(=O)O)cc1)C(=O)O; Bip = N[C@@H](Cc1ccc(-c2ccccc2)cc1)C(=O)O; Phe(3-Me) = Cc1cccc(C[C@H](N)C(=O)O)c1; hArg = N=C(N)NCCCC[C@H](N)C(=O)O; hhGln = NC(=O)CCCC[C@H](N)C(=O)O; Cha = N[C@@H](CC1CCCCC1)C(=O)O; Cit = NC(=O)NCCC[C@H](N)C(=O)O; Ile(3ξ) = CCC(C)[C@H](N)C(=O)O; Carboxymethyl = O=C(O)C*; NMeA = CN[C@@H](C)C(=O)O; Orn = NCCC[C@H](N)C(=O)O; Aun = NCCCCCCCCCCC(=O)O; Dab = NCC[C@H](N)C(=O)O; Nva = CCC[C@H](N)C(=O)O; Dap = NC[C@H](N)C(=O)O; AEEA = NCCOCCOCC(=O)O

Biological target: T1, PD-1/PD-L1 interaction (PE-labeled human PD-L1-Ig binding to Jurkat cell line over-expressing human PD-1) (Homo sapiens, UniProt Q15116)
T1 construct: expressed in transfected cells; host or cells: Jurkat
T1 sequence (Q15116 25-288): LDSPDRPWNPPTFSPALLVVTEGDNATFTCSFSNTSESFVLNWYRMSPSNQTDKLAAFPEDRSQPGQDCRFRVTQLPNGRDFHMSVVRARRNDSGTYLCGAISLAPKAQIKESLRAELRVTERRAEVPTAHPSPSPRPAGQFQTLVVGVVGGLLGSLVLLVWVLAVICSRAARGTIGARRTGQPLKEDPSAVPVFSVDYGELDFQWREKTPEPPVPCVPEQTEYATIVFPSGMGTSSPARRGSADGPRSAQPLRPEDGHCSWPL
Test: Jurkat-PD-1 Cell Binding High-Content Screening Assay (CBA)
Settings: Jurkat-hPD-1 cells, PE-labeled PD-L1-Ig 20 nM final; read-out: Jurkat HPD1 PDL1 IC50
Procedure, shortened: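 Compound is added first to the PD-1-expressing Jurkat cells and held 2 h at 37 °C in serum-containing DMEM. The fluorescent PD-L1 fusion follows at 20 nM final for 1 h. Fixed, Hoechst-stained cells are then imaged for bound label.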

| Structure (SMILES) | IC50 [nM] |
| --- | --- |
| CC(C)C[C@@H]1NC(=O)[C@H](Cc2c[nH]c3ccccc23)NC(=O)[C@H](CC(=O)O)NC(=O)[C@H](Cc2ccc(OCC(=O)O)cc2)NC(=O)[C@H](CCCCNC(=N)N)NC(=O)CSC[C@@H](C(=O)N[C@@H](CCCN)C(=O)NCCOCCOCC(=O)NCCCCCCCCCCC(=O)O)NC(=O)[C@H](CCCNC(N)=O)NC(=O)[C@H](C(C)C)NC(=O)[C@H](CC2CCCCC2)NC(=O)[C@H](CN)NC(=O)[C@@H](CC(C)C)NC(=O)[C@H](C)N(C)C(=O)[C@H](C(C)C)NC(=O)[C@H](Cc2ccc(-c3ccccc3)cc2)NC1=O [Example 2177] ({CH2CO}-[hArg]Y(Carboxymethyl)DWL[Bip]V[NMeA][dL][Dap][Cha]V[Cit]C[Orn][AEEA][Aun]-OH; thioether N-14) | 25.9 |
| CC(C)C[C@@H]1NC(=O)[C@H](Cc2c[nH]c3ccccc23)NC(=O)[C@H](CC(=O)O)NC(=O)[C@H](Cc2ccc(OCC(=O)O)cc2)NC(=O)[C@H](CCCCNC(=N)N)NC(=O)CSC[C@@H](C(=O)NCC(=O)NCCOCCOCC(=O)N[C@@H](CN)C(=O)NCCCCCCCCCCC(=O)O)NC(=O)[C@H](CCCNC(N)=O)NC(=O)[C@H](C(C)C)NC(=O)[C@H](CC2CCCCC2)NC(=O)[C@H](CCN)NC(=O)[C@@H](CC(C)C)NC(=O)[C@H](C)N(C)C(=O)[C@H](C(C)C)NC(=O)[C@H](Cc2ccc(-c3ccccc3)cc2)NC1=O [Example 2178] ({CH2CO}-[hArg]Y(Carboxymethyl)DWL[Bip]V[NMeA][dL][Dab][Cha]V[Cit]CG[AEEA][Dap][Aun]-OH; thioether N-14) | 8.5 |
| CC(C)C[C@@H]1NC(=O)[C@H](Cc2c[nH]c3ccccc23)NC(=O)[C@H](CC(=O)O)NC(=O)[C@H](Cc2ccc(OCC(=O)O)cc2)NC(=O)[C@H](CCCCNC(=N)N)NC(=O)CSC[C@@H](C(=O)NCC(=O)NCCOCCOCC(=O)N[C@@H](CCN)C(=O)NCCCCCCCCCCC(=O)O)NC(=O)[C@H](CCCNC(N)=O)NC(=O)[C@H](C(C)C)NC(=O)[C@H](CC2CCCCC2)NC(=O)[C@H](CCN)NC(=O)[C@@H](CC(C)C)NC(=O)[C@H](C)N(C)C(=O)[C@H](C(C)C)NC(=O)[C@H](Cc2ccc(-c3ccccc3)cc2)NC1=O [Example 2179] ({CH2CO}-[hArg]Y(Carboxymethyl)DWL[Bip]V[NMeA][dL][Dab][Cha]V[Cit]CG[AEEA][Dab][Aun]-OH; thioether N-14) | 11.2 |
| CC(C)C[C@@H]1NC(=O)[C@H](Cc2c[nH]c3ccccc23)NC(=O)[C@H](CC(=O)O)NC(=O)[C@H](Cc2ccc(OCC(=O)O)cc2)NC(=O)[C@H](CCCCNC(=N)N)NC(=O)CSC[C@@H](C(=O)NCC(=O)NCCOCCOCC(=O)N[C@@H](CCCN)C(=O)NCCCCCCCCCCC(=O)O)NC(=O)[C@H](CCCNC(N)=O)NC(=O)[C@H](C(C)C)NC(=O)[C@H](CC2CCCCC2)NC(=O)[C@H](CCN)NC(=O)[C@@H](CC(C)C)NC(=O)[C@H](C)N(C)C(=O)[C@H](C(C)C)NC(=O)[C@H](Cc2ccc(-c3ccccc3)cc2)NC1=O [Example 2180] ({CH2CO}-[hArg]Y(Carboxymethyl)DWL[Bip]V[NMeA][dL][Dab][Cha]V[Cit]CG[AEEA][Orn][Aun]-OH; thioether N-14) | 16.3 |
| CC(C)C[C@@H]1NC(=O)[C@H](Cc2c[nH]c3ccccc23)NC(=O)[C@H](CC(=O)O)NC(=O)[C@H](Cc2ccc(OCC(=O)O)cc2)NC(=O)[C@H](CCCCNC(=N)N)NC(=O)CSC[C@@H](C(=O)NCC(=O)NCCOCCOCC(=O)N[C@@H](CCCCN)C(=O)NCCCCCCCCCCC(=O)O)NC(=O)[C@H](CCCNC(N)=O)NC(=O)[C@H](C(C)C)NC(=O)[C@H](CC2CCCCC2)NC(=O)[C@H](CCN)NC(=O)[C@@H](CC(C)C)NC(=O)[C@H](C)N(C)C(=O)[C@H](C(C)C)NC(=O)[C@H](Cc2ccc(-c3ccccc3)cc2)NC1=O [Example 2181] ({CH2CO}-[hArg]Y(Carboxymethyl)DWL[Bip]V[NMeA][dL][Dab][Cha]V[Cit]CG[AEEA]K[Aun]-OH; thioether N-14) | 21.1 |
| CC(C)C[C@@H]1NC(=O)[C@H](Cc2c[nH]c3ccccc23)NC(=O)[C@H](CC(=O)O)NC(=O)[C@H](Cc2ccc(OCC(=O)O)cc2)NC(=O)[C@H](CCCCNC(=N)N)NC(=O)CSC[C@@H](C(=O)NCC(=O)NCCOCCOCC(=O)N[C@@H](CCCNC(N)=O)C(=O)NCCCCCCCCCCC(=O)O)NC(=O)[C@H](CCCNC(N)=O)NC(=O)[C@H](C(C)C)NC(=O)[C@H](CC2CCCCC2)NC(=O)[C@H](CCN)NC(=O)[C@@H](CC(C)C)NC(=O)[C@H](C)N(C)C(=O)[C@H](C(C)C)NC(=O)[C@H](Cc2ccc(-c3ccccc3)cc2)NC1=O [Example 2182] ({CH2CO}-[hArg]Y(Carboxymethyl)DWL[Bip]V[NMeA][dL][Dab][Cha]V[Cit]CG[AEEA][Cit][Aun]-OH; thioether N-14) | 12.3 |
| CC(C)C[C@@H]1NC(=O)[C@H](Cc2c[nH]c3ccccc23)NC(=O)[C@H](CC(=O)O)NC(=O)[C@H](Cc2ccc(OCC(=O)O)cc2)NC(=O)[C@H](CCCCNC(=N)N)NC(=O)CSC[C@@H](C(=O)NCCOCCOCC(=O)N[C@@H](CCCNC(N)=O)C(=O)NCCCCCCCCCCC(=O)O)NC(=O)[C@H](CCCNC(N)=O)NC(=O)[C@H](C(C)C)NC(=O)[C@H](CC2CCCCC2)NC(=O)[C@H](CCN)NC(=O)[C@@H](CC(C)C)NC(=O)[C@H](C)N(C)C(=O)[C@H](C(C)C)NC(=O)[C@H](Cc2ccc(-c3ccccc3)cc2)NC1=O [Example 2183] ({CH2CO}-[hArg]Y(Carboxymethyl)DWL[Bip]V[NMeA][dL][Dab][Cha]V[Cit]C[AEEA][Cit][Aun]-OH; thioether N-14) | 19.2 |
| CCC(C)[C@@H]1NC(=O)[C@H](Cc2ccc(-c3ccccc3)cc2)NC(=O)[C@H](CC(C)C)NC(=O)[C@H](Cc2c[nH]c3ccccc23)NC(=O)[C@H](CC(=O)O)NC(=O)[C@H](Cc2ccc(OCC(=O)O)cc2)NC(=O)[C@H](CCCCNC(=N)N)NC(=O)CSC[C@@H](C(=O)NCCOCCOCC(=O)N[C@@H](CCN)C(=O)NCCCCCCCCCCC(=O)O)NC(=O)[C@H](CCCCN)NC(=O)[C@H](C(C)C)NC(=O)[C@H](CC2CCCCC2)NC(=O)[C@H](CCN)NC(=O)[C@@H](CC(C)C)NC(=O)[C@H](C)N(C)C1=O (stereo partly drawn) [Example 2184] ({CH2CO}-[hArg]Y(Carboxymethyl)DWL[Bip][Ile(3ξ)][NMeA][dL][Dab][Cha]VKC[AEEA][Dab][Aun]-OH; thioether N-14) | 30.2 |
| CCC(C)[C@@H]1NC(=O)[C@H](Cc2ccc(-c3ccccc3)cc2)NC(=O)[C@H](CC(C)C)NC(=O)[C@H](Cc2c[nH]c3ccccc23)NC(=O)[C@H](CC(=O)O)NC(=O)[C@H](Cc2ccc(OCC(=O)O)cc2)NC(=O)[C@H](CCCCNC(=N)N)NC(=O)CSC[C@@H](C(=O)NCCOCCOCC(=O)N[C@@H](CCN)C(=O)NCCCCCCCCCCC(=O)O)NC(=O)[C@H](CCCCN)NC(=O)[C@H](C(C)C)NC(=O)[C@H](CC2CCCCC2)NC(=O)[C@H](CCN)NC(=O)[C@@H](C)NC(=O)[C@H](C)N(C)C1=O (stereo partly shown) [Example 2185] ({CH2CO}-[hArg]Y(Carboxymethyl)DWL[Bip][Ile(3ξ)][NMeA][dA][Dab][Cha]VKC[AEEA][Dab][Aun]-OH; thioether N-14) | 40.2 |
| CC[C@H](C)[C@@H]1NC(=O)[C@H](Cc2ccc(-c3ccccc3)cc2)NC(=O)[C@H](CC(C)C)NC(=O)[C@H](Cc2c[nH]c3ccccc23)NC(=O)[C@H](CC(=O)O)NC(=O)[C@H](Cc2ccc(OCC(=O)O)cc2)NC(=O)[C@H](CCCCNC(=N)N)NC(=O)CSC[C@@H](C(=O)NCCOCCOCC(=O)N[C@@H](CCN)C(=O)NCCCCCCCCCCC(=O)O)NC(=O)[C@H](CCCCN)NC(=O)[C@H](C(C)C)NC(=O)[C@H](CC2CCCCC2)NC(=O)[C@H](CCN)NC(=O)[C@H]2CCCN2C(=O)[C@H](C)N(C)C1=O [Example 2186] ({CH2CO}-[hArg]Y(Carboxymethyl)DWL[Bip]I[NMeA][dP][Dab][Cha]VKC[AEEA][Dab][Aun]-OH; thioether N-14) | 158 |
| CCC[C@@H]1NC(=O)[C@@H](CC(C)C)NC(=O)[C@H](C)N(C)C(=O)[C@H](C(C)C)NC(=O)[C@H](Cc2ccc(-c3ccccc3)cc2)NC(=O)[C@H](CC(C)C)NC(=O)[C@H](Cc2c[nH]c3ccccc23)NC(=O)[C@H](CC(=O)O)NC(=O)[C@H](Cc2ccc(C(=O)O)cc2)NC(=O)[C@H](Cc2ccc(OCC(=O)O)cc2)NC(=O)CSC[C@@H](C(=O)NCCOCCOCC(=O)NCCCCCCCCCCC(=O)O)NC(=O)[C@H](CCCCC(N)=O)NC(=O)[C@H](C(C)C)NC(=O)[C@H](CC2CCCCC2)NC1=O [Example 2187] ({CH2CO}-Y(Carboxymethyl)[Phe(4-COOH)]DWL[Bip]V[NMeA][dL][Nva][Cha]V[hhGln]C[AEEA][Aun]-OH; thioether N-14) | 6.2 |
| CC(C)C[C@@H]1NC(=O)[C@H](Cc2c[nH]c3ccccc23)NC(=O)[C@H](CC(=O)O)NC(=O)[C@H](Cc2ccc(C(=O)O)cc2)NC(=O)[C@H](Cc2ccc(OCC(=O)O)cc2)NC(=O)CSC[C@@H](C(=O)N[C@@H](CCN)C(=O)NCCCCCCCCCCC(=O)O)NC(=O)[C@H](CCCNC(N)=O)NC(=O)[C@H](C(C)C)NC(=O)[C@H](CC2CCCCC2)NC(=O)[C@H](CCN)NC(=O)[C@@H](CC(C)C)NC(=O)[C@H](C)N(C)C(=O)[C@H](C(C)C)NC(=O)[C@H](Cc2ccc(-c3ccccc3)cc2)NC1=O [Example 2188] ({CH2CO}-Y(Carboxymethyl)[Phe(4-COOH)]DWL[Bip]V[NMeA][dL][Dab][Cha]V[Cit]C[Dab][Aun]-OH; thioether N-14) | 12.1 |
| Cc1cccc(C[C@@H]2NC(=O)[C@H](CC(=O)O)NC(=O)[C@H](Cc3ccc(C(=O)O)cc3)NC(=O)[C@H](Cc3ccc(OCC(=O)O)cc3)NC(=O)CSC[C@@H](C(=O)N[C@@H](CCCN)C(=O)NCCCCCCCCCCC(=O)O)NC(=O)[C@H](CO)NC(=O)[C@H](C(C)C)NC(=O)[C@H](CC3CCCCC3)NC(=O)[C@H](CN)NC(=O)[C@@H](CC(C)C)NC(=O)[C@H](C)N(C)C(=O)[C@H](C(C)C)NC(=O)[C@H](Cc3ccc(-c4ccccc4)cc3)NC(=O)[C@H](CC(C)C)NC2=O)c1 [Example 2189] ({CH2CO}-Y(Carboxymethyl)[Phe(4-COOH)]D[Phe(3-Me)]L[Bip]V[NMeA][dL][Dap][Cha]VSC[Orn][Aun]-OH; thioether N-14) | 28.9 |
